Structures are written as SMILES.

The values that follow come from patent publication US7381540B2, “Composition for measuring glucose having improved substrate specificity” (Toyo Boseki Kabushiki Kaisha, priority 2005, dated 2008).

Assay [1] concerns modified PQQGDH. Kind of assay: Substrate specificity using glucose assay system (ferricyanide reduction, absorbance 420 nm). Format: biochemical. The note with it: for activity with respect to maltose compared with the control (in words): substrate concentration of 4.8 mM, in some cases. The method, then:
D-glucose+ferricyanide ion+PQQGDH D-glucono-1,5-lactone+ferrocyanide ion
Specificity to each substrate can be determined by changing D-glucose to other saccharides. The presence of the ferrocyanide ion produced by reduction of the ferricyanide ion was confirmed by measuring the decrease of absorbance at a wavelength of 420 nm by spectrophotometry.
A. […]
B. Potassium ferricyanide solution: 50 mM (0.165 g potassium ferricyanide (molecular weight: 329.25) dissolved in 10 ml of distilled water)
C. PQQGDH solution: 31000 U/ml (approx. 128 mg PQQGDH (Toyobo: GLD-331) dissolved in 5 ml of distilled water)
D. Substrate solution (D-glucose solution or maltose solution): 100 or 400 mM
• 1. The following reaction mixture was prepared in a light shielding bottle, and stored on ice (prepared at use). 48.2 mL of each buffer solution (pH6.5) (A) • 4.0 mL of potassium ferricyanide solution (B) • 0.19 mL of (C) • 2. 2.65 ml of the reaction mixture and 0.3 ml of additive were placed in a test tube (plastic) and pre-warmed for 5 minutes at 37° C. • 3. 0.15 ml of substrate solution (D) were added and mixed gently. • 4. The reduction in the absorbance relative to water at 420 nm was recorded for 1 to 3 minutes with a spectrophotometer while maintaining at a temperature of 37° C., and the ΔOD per minute was calculated from the initial linear portion of the curve (ΔOD test). At the same time, the same procedure was carried out with the exception of adding distilled water instead of glucose solution followed by measurement of the blank (ΔOD blank).
The above-mentioned procedure was carried out at each of the predetermined concentrations shown in Tables 1 to 3 using as additives succinic acid, adipic acid, suberic acid, pimeric acid, potassium chloride, ammonium chloride, diammonium hydrogen citrate, malonic acid, L-lysine, taurine, 3,3-dimethylglutaric acid, malic acid, glutaric acid, calcium glycerate, amino-n-butyric acid, sodium glycolate, sodium α-ketoglutarate, fumaric acid, glycerin, glutamic acid and serine. And the procedure was also carried out for those not containing additives to assess the effects of additives.
Variation in absorbance per unit time was determined by calculating ΔOD/min(ΔOD test−ΔOD blank)
To evaluate whether activity had declined with respect to sugars other than glucose, the ΔOD/min (a) with D-glucose as the substrate solution and the ΔOD/min (b) with the other sugar in place of D-glucose as the substrate solution were measured, and the relative value ((b)/(a)×100) was calculated given 100 as the measurement value with glucose as the substrate.
In each of Tables 3 to 5, in the case the value of the ratio of measured values of maltose and glucose (maltose/glucose) relative to the control (control: no addition) is small, activity with respect to maltose during glucose measurement decreases.

Assay [2] relates to modified PQQGDH. Described as above. The note with it: potassium phosphate buffer pH 7.0. Format: biochemical.
For assay [3], the system named is modified PQQGDH. Kind of assay: Maltose activity of glucose electrode loaded with modified PQQGDH (oxidation current, potassium ferricyanide mediator). It is filed as biochemical, Acinetobacter baumannii strain NCIMB11517. The note with it: for Maltose Activity of Glucose Electrode: 50 mM solvent, 1 mM calcium chloride, 0.1% Triton X-100; for Maltose Activity (%): solute 50 mM, pH 5.5, glucose or maltose 4 mM, 0.1 M potassium ferricyanide, +0.35 V, 25° C. The method, then:
0.5 g of carbon graphite were placed in a mortar followed by the addition of 0.3 ml of liquid paraffin and kneading with a pestle for 30 minutes to produce a carbon paste. The resulting carbon paste was spread onto a platinum electrode followed by the addition of 10 μl of the modified PQQGDH solution (2,000 U/ml) produced in Example 2 and air drying for 30 minutes at room temperature. A cut cellulose semi-permeable membrane (molecular weight: 8,000) was placed over the dried enzyme electrode and the semi-permeable membrane was immobilized with plastic O-rings. The glucose electrode produced in this manner was then used after preliminarily immersing in the cold reaction solvent for 30 minutes.
The substances listed in Table 1 were used as solutes, and buffers were respectively prepared having a final concentration of 50 mM (pH 5.5). Each of the solvents contained an activator/stabilizer in the form of calcium chloride at 1 mM and surfactant in the form of 0.1% Triton X-100 in addition to the solute listed in Table 1. Potassium ferricyanide was dissolved in each of the produced solvents to a concentration of 0.1 M to prepare reaction solutions.
50 mM phosphoric acid or pimeric acid solution containing 1 mM calcium chloride and 0.1% Triton X-100 (consisting of three types having pH values of 5.0, 6.0 and 7.0, respectively) were prepared. Maltose activity of the glucose electrode was investigated for each according to the method of Example 5.

Setting [4] is: glutaric acid buffer pH 7.0, reagent 0.1%, substrate 4.8 mM, control 0.86.
The mark [5] stands for this setting: glutaric acid buffer pH 7.0, reagent 0.1%, substrate 19.2 mM, control 0.94.
The mark [6] stands for this setting: glutaric acid buffer pH 7.0, reagent 1%, substrate 4.8 mM, control 0.86.
[7] abbreviates: glutaric acid buffer pH 7.0, reagent 1%, substrate 19.2 mM, control 0.94.
Where [8] appears, read: phthalic acid buffer pH 7.0, reagent 0.05%, substrate 4.8 mM, control 0.72.
The mark [9] stands for this setting: phthalic acid buffer pH 7.0, reagent 0.05%, substrate 19.2 mM, control 0.75.
Where [10] appears, read: phthalic acid buffer pH 7.0, reagent 0.1%, substrate 4.8 mM, control 0.72.
Where [11] appears, read: phthalic acid buffer pH 7.0, reagent 0.1%, substrate 19.2 mM, control 0.75.
The mark [12] stands for this setting: phthalic acid buffer pH 7.0, reagent 0.2%, substrate 4.8 mM, control 0.72.
The mark [13] stands for this setting: phthalic acid buffer pH 7.0, reagent 0.2%, substrate 19.2 mM, control 0.75.
The mark [14] stands for this setting: potassium phosphate buffer pH 7.0, reagent 0.5%, substrate 19.2 mM, control 0.93.
Setting [15] is: potassium phosphate buffer pH 7.0, reagent 1%, substrate 19.2 mM, control 0.93.
The mark [16] stands for this setting: reagent 0.5%, substrate 4.8 mM, control 0.85.
[17] abbreviates: reagent 1%, substrate 4.8 mM, control 0.85.
The mark [18] stands for this setting: reagent 2%, substrate 4.8 mM, control 0.85.
Where [19] appears, read: reagent 2%, substrate 19.2 mM, control 0.93.

`O=C(O)CCCCCC(=O)O` [Pimeric acid]: the Maltose/glucose ratio in the assay on modified PQQGDH [1] (setting [4]) stood at 0.63; in the assay on modified PQQGDH [1] (setting [5]) it was 0.78; with modified PQQGDH [1] (setting [6]), 0.39; in the assay on modified PQQGDH [1] (setting [7]), 0.44; in the assay with modified PQQGDH [1] (setting [8]) it was 0.64; in the assay on modified PQQGDH [1] (setting [9]) it was 0.64. Also, the Maltose/glucose ratio with modified PQQGDH [1] (setting [10]) turned out to be 0.71; with modified PQQGDH [1] (setting [11]), 0.58; with modified PQQGDH [1] (setting [12]), 0.76; with modified PQQGDH [1] (setting [13]) it was 0.58; in the assay with modified PQQGDH [1] (setting [14]) it was 0.86; in the assay on modified PQQGDH [1] (setting [15]), 0.80. Further, the Maltose/glucose ratio amounted to 0.71 in the assay with modified PQQGDH [2] (setting [16]), 0.58 with modified PQQGDH [2] (setting [17]), 0.44 in the assay on modified PQQGDH [2] (setting [18]) and 0.58 in the assay on modified PQQGDH [2] (setting [19]). The “activity with respect to maltose compared with the control (in words)” value in the assay with modified PQQGDH [1] was “did not decrease”. Besides, in the assay on modified PQQGDH [3] (pH 5.0, 6.0, 7.0, compared with phosphoric acid), the “maltose activity on lowering the pH (in words)” value was “decrease more”. The “Maltose Activity of Glucose Electrode” value is reported as 15.2% in the assay with modified PQQGDH [3] (pH 5.0), 23.8% in the assay with modified PQQGDH [3] (pH 6.0) and 49.1% with modified PQQGDH [3] (pH 7.0). Moreover, the “Maltose Activity (%)” value in the assay on modified PQQGDH [3] was 23.1%.

With `O=C(O)CCC(=O)O` [Succinic acid], the Maltose/glucose ratio was determined as 0.55 with modified PQQGDH [1] (setting [4]); 0.75 in the assay on modified PQQGDH [1] (setting [5]); 0.35 in the assay with modified PQQGDH [1] (setting [6]); 0.52 with modified PQQGDH [1] (setting [7]); 0.65 with modified PQQGDH [1] (setting [8]); 0.56 in the assay on modified PQQGDH [1] (setting [9]). Moreover, the Maltose/glucose ratio stood at 0.73 with modified PQQGDH [1] (setting [10]); 0.57 with modified PQQGDH [1] (setting [11]); 0.77 in the assay with modified PQQGDH [1] (setting [12]); 0.60 in the assay on modified PQQGDH [1] (setting [13]); 0.84 with modified PQQGDH [1] (setting [14]); 0.62 in the assay on modified PQQGDH [1] (setting [15]). Further, the Maltose/glucose ratio with modified PQQGDH [2] (setting [16]) is recorded as 0.65; in the assay with modified PQQGDH [2] (setting [17]) it was 0.47; in the assay with modified PQQGDH [2] (setting [18]), 0.34; with modified PQQGDH [2] (setting [19]), 0.45. For the same compound, in the assay on modified PQQGDH [1], the “activity with respect to maltose compared with the control (in words)” value is recorded as “did not decrease”. Moreover, in the assay on modified PQQGDH [3], the “Maltose Activity (%)” value amounted to 22.5%.

For the compound `O=C(O)CCCCCCC(=O)O` [Suberic acid], the Maltose/glucose ratio in the assay on modified PQQGDH [1] (glutaric acid buffer pH 7.0, reagent 0.03%, substrate 4.8 mM, control 0.86) came to 0.68; in the assay on modified PQQGDH [1] (glutaric acid buffer pH 7.0, reagent 0.03%, substrate 19.2 mM, control 0.94), 0.86; in the assay with modified PQQGDH [1] (glutaric acid buffer pH 7.0, reagent 0.33%, substrate 4.8 mM, control 0.86), 0.38; with modified PQQGDH [1] (glutaric acid buffer pH 7.0, reagent 0.33%, substrate 19.2 mM, control 0.94), 0.49; in the assay on modified PQQGDH [1] (phthalic acid buffer pH 7.0, reagent 0.017%, substrate 4.8 mM, control 0.72), 0.66; in the assay on modified PQQGDH [1] (phthalic acid buffer pH 7.0, reagent 0.017%, substrate 19.2 mM, control 0.75), 0.69. The Maltose/glucose ratio in the assay with modified PQQGDH [1] (phthalic acid buffer pH 7.0, reagent 0.033%, substrate 4.8 mM, control 0.72) came to 0.67; in the assay with modified PQQGDH [1] (phthalic acid buffer pH 7.0, reagent 0.033%, substrate 19.2 mM, control 0.75), 0.62; in the assay with modified PQQGDH [1] (phthalic acid buffer pH 7.0, reagent 0.066%, substrate 4.8 mM, control 0.72) it was 0.70; with modified PQQGDH [1] (phthalic acid buffer pH 7.0, reagent 0.066%, substrate 19.2 mM, control 0.75) it was 0.55. Moreover, the “Maltose Activity (%)” value with modified PQQGDH [3] is 20.2%.

For the compound `CC(C)(CC(=O)O)CC(=O)O` [3,3-dimethylglutaric acid], the Maltose/glucose ratio was determined as 0.56 in the assay on modified PQQGDH [1] (setting [4]); 0.76 with modified PQQGDH [1] (setting [5]); 0.37 in the assay with modified PQQGDH [1] (setting [6]); 0.47 in the assay on modified PQQGDH [1] (setting [7]); 0.82 in the assay with modified PQQGDH [1] (setting [14]); 0.64 in the assay on modified PQQGDH [1] (setting [15]). The Maltose/glucose ratio turned out to be 0.60 with modified PQQGDH [2] (setting [16]), 0.44 in the assay on modified PQQGDH [2] (setting [17]), 0.41 with modified PQQGDH [2] (setting [18]) and 0.49 in the assay on modified PQQGDH [2] (setting [19]). Further, the “Maltose Activity (%)” value with modified PQQGDH [3] was 14.9%.

`O=C(O)CCCCC(=O)O` [Adipic acid]: the Maltose/glucose ratio with modified PQQGDH [1] (setting [4]) was found to be 0.73; in the assay with modified PQQGDH [1] (setting [5]), 0.84; in the assay with modified PQQGDH [1] (setting [6]) it was 0.43; with modified PQQGDH [1] (setting [7]) it was 0.67; in the assay with modified PQQGDH [1] (setting [8]) it was 0.66; with modified PQQGDH [1] (setting [9]), 0.68. The Maltose/glucose ratio came to 0.65 in the assay with modified PQQGDH [1] (setting [10]), 0.64 in the assay on modified PQQGDH [1] (setting [11]), 0.65 with modified PQQGDH [1] (setting [12]) and 0.58 with modified PQQGDH [1] (setting [13]). Also, the “Maltose Activity (%)” value with modified PQQGDH [3] turned out to be 20.7%.

For the compound `O=C(O)CC(O)C(=O)O` (racemic) [D,L-malic acid], the Maltose/glucose ratio is given as 0.57 with modified PQQGDH [1] (setting [4]), 0.77 with modified PQQGDH [1] (setting [5]), 0.34 in the assay on modified PQQGDH [1] (setting [6]) and 0.40 with modified PQQGDH [1] (setting [7]). In the assay with modified PQQGDH [3], the “Maltose Activity (%)” value is 18.9%.
